Experimental data published in paper PMC8741257, “Identification of novel non-toxic and anti-angiogenic α-fluorinated chalcones as potent colchicine binding site inhibitors” (Journal of Enzyme Inhibition and Medicinal Chemistry, 2022).

Tests used:
[1] = tested on: MGC-803 (human gastric cancer cells); assay: Antiproliferative activity (SRB / CCK-8 assay); assay type: cell-based; settings: mean ± SD
Procedure: MCF-7, MGC-803, Hela and HepG-2 cell lines were cultured in a base medium (90% DMEM and 10% FBS), A549 and U937 were cultured in a base medium (90% PRMI-1640 and 10% FBS) at 37 °C, 5% CO2 and a saturated humidity atmosphere. All the mediums were supplemented with 10% FBS and 1% […]/streptomycin (all cells were purchased from Shanghai Institutes for Biological Sciences, Chinese Academy of Sciences, Shanghai, China).
A549, MGC-803, MCF-7, HepG2 and Hela cells were seeded at the appropriate cell line density (3 × 10^3 to 4 × 10^3 cells/well). The cells were then incubated at 37 °C for 24 h in a humidified 5%CO2 in 96-well plates prior to experiments. After a further 72 h of incubation, cell proliferation was quantified with SRB ([…]) to determine the number of surviving cells. The absorbance at 560 nm was measured by microplate. The experiment was repeated three times, and the data were listed in the form of mean and standard deviation.
MGC-803 cells were collected and seeded into 96 well plates at a density of 8000/well. The mediums containing drugs and cell suspension were added into the well. The cells were incubated in 5% CO2 incubator at 37 °C for 72 h. Each well was added 10 µL CCK8 solution, and the incubation time was 3–4 h. The absorbance value at 450 nm was measured by microplate reader. Data are calculated with GraphPad Prism5 software.

[2] = tested on: human normal cells (LO2, 293T, macrophage) versus MGC-803; assay: Selectivity of growth inhibition, human normal cells versus MGC-803; assay type: cell-based
Procedure: The effect of compound 4c on three types of normal human cell lines including LO2 (human hepatocyte cells), 293 T (human embryonic kidney cell) and THP-1-derived macrophages was then determined.

[3] = tested on: microtubule network of MGC-803 cells; assay: Immunofluorescent staining of the cellular microtubule network; assay type: cell-based, human; settings: 18, 36, and 72 nM
Procedure: Since tubulin-microtubule system plays a crucial role in mechanical solidity, cell motility and mitosis, an immunofluorescent staining assay was further carried out in MGC-803 cells to evaluate the inhibitory effects of 4c on microtubule cytoskeleton. […] Upon treatment with higher concentrations of 4c, the dispersed tubulin dimers were even more obvious and there is no tubular structure left.
MGC-803 cells (3 × 10^4 cells/well) were seeded into 6 well-plates and then treated with vehicle control 0.1% DMSO and 4c (18, 36, 72nΜ). The cells were rinsed twice with PBS and fixed by 4% paraformaldehyde for 20 min. Subsequently, microtubule detection was performed using a fluorescent antibody against α-tubulin in 5% BSA and incubated for 5 ∼ 6 h at room temperature. To stain cell nucleus, crystals were incubated with Hoechst for 10 min. After washing with PBST to remove redundant stain, the samples were visualised under an Olympus laser scanning confocal microscope.

MGC-803 cells = assay: Cell apoptosis assay (Annexin V/PI, flow cytometry); assay type: cell-based, human; settings: 48 h, control 1.99%
Procedure: According to above-mentioned cell cycle analysis, we suppose that 4c might induce cells apoptosis, like other microtubule polymerisation inhibitors. Thus, the effects of 4c on MGC-803 cell apoptosis were examined by flow cytometry.
MGC-803 cells at 8 × 10^4 cells/well were seeded in 12-well cell culture plates overnight, and then the cultured cells were incubated with a dose range of compounds 4c for 48 h. The treated or untreated cells were washed twice with PBS and stained by Annexin V-PE and PI for 15 min without light exposure according to the manufacturer’s protocol. Apoptosis was quantified using a flow cytometer (Becton, Dickinson and Company, USA).

[4] = tested on: HUVECs (human umbilical vein endothelial cells); assay: Wound healing migration assay; assay type: cell-based; settings: 10 µM, 48 h, control 65%
Procedure: (§1) HUVECs (human umbilical vein endothelial cells) grown on Matrigel were commonly used as a tube formation model for studying the physiological and pathological processes of the vascular system in vitro, and a widely studied human endothelial cell type in angiogenesis. The effect of 4c on endothelial cell migration was assessed by using HUVECs. Standardised wounds were made in confluent monolayers of HUVECs and then exposed to compound 4c at 2.5, 5 and 10 µM for 48 h. […] We further evaluated the capacity of 4 s on endothelial cell invasion using a Transwell assay.
MGC-803 cells and HUVECs were seeded in 24-well plates and cultivated for 24 h at 37 °C. The cells were scribed vertically with a gun tip and washed with PBS to remove dead cells. The containing different concentrations of 4c were added to the scratched monolayers. The migrated cells were photographed under a light microscope at indicated time points from the scratch. Take a picture and use the image J software to calculate the area of the cell scratches.

[5] = tested on: HUVECs (human umbilical vein endothelial cells); assay: Transwell cell invasion assay; assay type: cell-based; settings: 2.5, 5 and 10 µM, 24 h
Procedure: as §1
Matrix gel was thawed overnight at 4 °C. […] Then the cells were washed three times with PBS and fixed cells by 4% paraformaldehyde for 30 min. Subsequently, 0.2% crystal violet solution was added, stained for 30 min, and the invasion of cells was observed under the microscope. Transwell was placed into a 24-well plate, 35% acetic acid (300 μL) was added to the upper chamber of the chamber, and after acetic acid completely entered the lower chamber, 100 μL of acetic acid from the lower chamber was aspirated into a 96-well plate, and three replicate wells of each concentration were shaken for 10 min, and the absorbance was measured at 560 nm with an enzyme marker.

IC50 ([1]; Table 2, triplicate): 57 ± 6 nM | IC50 ([1]; three separated experiments, 72 h): 57.1 ± 6 nM
Structure (SMILES): COc1cc(C(=O)/C(F)=C/c2c[nH]c3cc(Br)ccc23)cc(OC)c1OC [4c, (Z)-3–(6-bromo-1H-indol-3-yl)-2-fluoro-1–(3,4,5-trimethoxyphenyl)prop-2-en-1-one]
selectivity ratio towards MGC-803 cells and macrophage cells [2]: up to 21.2 folds | Effect on cellular microtubule network [3]: remarkable disruption of microtubule reticular network | percentage of apoptotic cells (MGC-803 cells; 18 nM (lowest dose)): 19.12% | percentage of apoptotic cells (MGC-803 cells; 72 nM (highest dose)): 57.99% | wound closure rates [4]: 11% | number of cells invaded into lower chamber [5]: gradually decreased in a dose-dependent manner
